# Assay results reported in patent publication US9260481B2, “Peptide derivatives as antibiotics” (priority 2011, dated 2016).
# Like-named read-outs stand apart in the source and are kept apart here. Marks after values point to notes of the source that are not given here.
# How the values were obtained:
# S. aureus ATCC 25923 = type: cell-based, Staphylococcus aureus; conditions: for MIC antibiotic alone: S. aureus ATCC 25923, checkerboard, ~10^4 CFU/mL
# Text: (§1) Vancomycin, rifampicin, kanamycin, gentamicin, ampicillin, ciprofloxacin and tetracycline (Sigma-Aldrich) were provided as standard powders by the manufacturers.
# P. aeruginosa = experiment: Resistance profile of multiresistant clinical isolates; type: cell-based, Pseudomonas aeruginosa; set-up: key: R: resistant; S: sensitive; I: intermediate
# S. aureus = experiment: as above; type: cell-based, Staphylococcus aureus; set-up: key: R: resistant; S: sensitive; I: intermediate
# K. pneumoniae ATCC 43816 = type: cell-based, Klebsiella pneumoniae; conditions: for MIC antibiotic alone: K. pneumoniae ATCC 43816, checkerboard, ~10^4 CFU/mL; for Combinations Odilomycin/antibiotic: Odilomycin concentration: Odilomycin A part of the inhibitory combination with the labelled antibiotic
# Text: as §1
# [1] = system: S. aureus Smith ATCC 13709; experiment: Acute lethal infection in mice; type: in vivo, ICR mice
# Procedure: Female ICR mice ordered from Harlan Laboratories (Indianapolis, Ind.) weighing 19-21 g were used in experiments of acute lethal infection. Mice were fully immunocompetent. Infection was induced by inoculating intraperitoneally in mice a bacterial suspension of S. aureus Smith ATCC 13709. The bacterial challenges (ca 5 log10 CFU/mouse) were given suspended in 0.5 mL of 20% hog mucin. […] Mortality was tracked out to 5 days post challenge. Animals that remained surviving at the end of the study were humanely euthanized.
# P. aeruginosa ATCC 27853 = experiment: Acute lethal infection in mice; type: in vivo, BALB/c mice; conditions: P. aeruginosa infection; Tobramycin […] IP
# Procedure: Female BALB/c mice ordered from Harlan Laboratories (Indianapolis, Ind.) weighing 19-21 g were used in experiments of acute lethal infection. Mice were fully immunocompetent. Infection was induced by inoculating intraperitoneally in mice a bacterial suspension of P. aeruginosa ATCC 27853. The bacterial challenges (8.6 log10 CFU/mouse) were given suspended in 0.1 mL sterile saline. Treatments were administered once 1 hour after challenge via IV injection (Tobramycin was administered via IP injection immediately after challenge) (Table 13). Mortality was tracked out to 2 days post challenge. Animals that remained surviving at the end of the study were humanely euthanized.
# Staphylococcus aureus = experiment: microbe, parasite or virus in culture; conditions: Staphylococcus aureus
# Procedure: (§2) The minimal inhibitory concentrations (MIC) were determined according to the Clinical and Laboratory Standards Institute (CLSI) conditions guidelines detailed in Table 7. Assays were performed in triplicate.
# (§3) Preparation of Inocula. Five to 10 well-isolated colonies were picked and resuspended in 3 ml sterile saline. The inoculum was re-suspended by vigorous shaking on a vortex mixer for 15 s. Turbidity was adjusted to McFarland standard 0.5 ([…]). The inoculum was further diluted in the appropriate media (Table 7) to give a final inoculum in each well of ˜2-8×10^5 CFU/ml.
# (§4) Addition of Test Article. Stock solutions of Odilomycin A or comparator were diluted in the appropriate media to give a maximum starting concentration of 50 μg/mL in the assay. 50 μL of medium was dispensed into each well in columns two to 12 of a 96 well plate. 100 μL of the appropriate test compound solution (100 μg/mL) was dispensed into each well in column one. In the case of M. catarrhalis, M. haemolytica and P. multocida these values were doubled (a final assay volume of 200 μL was used). […] Columns 11 and 12 served as positive (no drug or test article, inoculum added), and negative (no drug, test article, or inoculum added) growth controls respectively.
# (§5) Addition of Bacterial Strains. 50 μL of each inoculum suspension was added to the appropriate wells, resulting in a final volume of 100 μL consisting of 50 μL diluted compound or diluents, and 50 μL of inoculum or broth alone.
# Pseudomonas aeruginosa = conditions: P. aeruginosa ATCC 27853
# Procedure: as §2, §3, §4, §5
# Enterobacter cloacae = conditions: E. cloacae clinical isolate 11370
# Procedure: as §2, §3, §4, §5
# Escherichia coli = system: Escherichia coli
# Procedure: as §2, §3, §4, §5
# Klebsiella oxytoca = conditions: K. oxytoca clinical isolate NEB9
# Procedure: as §2, §3, §4, §5
# Klebsiella pneumoniae = system: Klebsiella pneumoniae
# Procedure: as §2, §3, §4, §5
# [2] = P. aeruginosa multiresistant clinical isolate 5618
# [3] = P. aeruginosa multiresistant clinical isolate 35170
# [4] = P. aeruginosa multiresistant clinical isolate 42162
# [5] = P. aeruginosa multiresistant clinical isolate 401681
# [6] = P. aeruginosa multiresistant clinical isolate 512232
# [7] = S. aureus multiresistant clinical isolate 16666
# [8] = S. aureus multiresistant clinical isolate 20364
# [9] = S. aureus multiresistant clinical isolate 20681
# [10] = S. aureus multiresistant clinical isolate 21840
# [11] = S. aureus multiresistant clinical isolate 23305
# [12] = mice, S. aureus 5 log10 CFU/mouse IP, Linezolid 12.5 mg/kg PO at 0 hr, n=6
Compound,MIC antibiotic alone (S. aureus ATCC 25923),Susceptibility of isolate to antibacterial (R/S/I) (P. aeruginosa; [2]),Susceptibility of isolate to antibacterial (R/S/I) (P. aeruginosa; [3]),Susceptibility of isolate to antibacterial (R/S/I) (P. aeruginosa; [4]),Susceptibility of isolate to antibacterial (R/S/I) (P. aeruginosa; [5]),Susceptibility of isolate to antibacterial (R/S/I) (P. aeruginosa; [6]),Susceptibility of isolate to antibacterial (R/S/I) (S. aureus; [7]),Susceptibility of isolate to antibacterial (R/S/I) (S. aureus; [8]),Susceptibility of isolate to antibacterial (R/S/I) (S. aureus; [9]),Susceptibility of isolate to antibacterial (R/S/I) (S. aureus; [10]),Susceptibility of isolate to antibacterial (R/S/I) (S. aureus; [11]),also measured
CC1(C)S[C@@H]2[C@H](NC(=O)[C@H](N)c3ccccc3)C(=O)N2[C@H]1C(=O)O [Ampicillin],0.15 µg/mL,–,–,–,–,–,–,–,–,–,–,–
C[C@H]1[C@H](NC(=O)/C(=N\OC(C)(C)C(=O)O)c2csc(N)n2)C(=O)N1S(=O)(=O)O [Aztreonam],–,S,R,I,I,R,–,–,–,–,–,–
CO[C@@]1(NC(=O)Cc2cccs2)C(=O)N2C(C(=O)O)=C(COC(N)=O)CS[C@@H]21 [Cefoxitin],–,–,–,–,–,–,R,R,R,S,I,–
"O=C(O)c1cn(C2CC2)c2cc(N3CCNCC3)c(F)cc2c1=O [Ciprofloxacin, ciprofloxacin]",0.31 µg/mL,–,–,–,–,–,–,–,–,–,–,–
CCC[C@@H]1C[C@@H](C(=O)N[C@@H]([C@H]2O[C@H](SC)[C@H](O)[C@@H](O)[C@H]2O)[C@H](C)Cl)N(C)C1 [Clindamycin],–,R,R,R,R,R,R,R,S,S,R,–
CC[C@H]1OC(=O)[C@H](C)[C@@H](O[C@H]2C[C@@](C)(OC)[C@@H](O)[C@H](C)O2)[C@H](C)[C@@H](O[C@@H]2O[C@H](C)C[C@H](N(C)C)[C@H]2O)[C@](C)(O)C[C@@H](C)C(=O)[C@H](C)[C@@H](O)[C@]1(C)O [Erythromycin],–,R,R,R,R,R,R,R,S,S,R,–
C[C@@H](O)[C@H]1C(=O)N2C(C(=O)O)=C(SCCN=CN)C[C@H]12 [Imipenem],–,R,R,R,S,R,–,–,–,–,–,–
NC[C@H]1O[C@H](O[C@H]2[C@H](O)[C@@H](O[C@H]3O[C@H](CO)[C@@H](O)[C@H](N)[C@H]3O)[C@H](N)C[C@@H]2N)[C@H](O)[C@@H](O)[C@@H]1O [Kanamycin],0.62 µg/mL,–,–,–,–,–,–,–,–,–,–,"MIC antibiotic alone (K. pneumoniae ATCC 43816): 1.56 µg/mL; Combinations Odilomycin/antibiotic: Odilomycin concentration (K. pneumoniae ATCC 43816; K. pneumoniae ATCC 43816): 6.25 µg/mL; Combinations Odilomycin/antibiotic: antibiotic concentration (K. pneumoniae ATCC 43816; K. pneumoniae ATCC 43816, antibiotic part of the inhibitory combination with Odilomycin A): 0.39 µg/mL"
"CC(=O)NC[C@H]1CN(c2ccc(N3CCOCC3)c(F)c2)C(=O)O1 [Linezolid, reference compound]",–,–,–,–,–,–,S,S,S,S,S,"Survival of all treated mice ([1]; S. aureus infection, linezolid 12.5 mg/kg PO): survived up to 5 days after infection; Animal deaths Day 0 [1, 12]: 0; Animal deaths Day 1 [1, 12]: 0; Animal deaths Day 2 [1, 12]: 0; Animal deaths Day 3 [1, 12]: 0; Animal deaths Day 4 [1, 12]: 0; Animal deaths Day 5 [1, 12]: 0"
CO[C@H]1/C=C/O[C@@]2(C)Oc3c(C)c(O)c4c(O)c(c(/C=N/N5CCN(C)CC5)c(O)c4c3C2=O)NC(=O)/C(C)=C\C=C\[C@H](C)[C@H](O)[C@@H](C)[C@@H](O)[C@@H](C)[C@H](OC(C)=O)[C@@H]1C [Rifampicin],0.012 µg/mL,–,–,–,–,–,–,–,–,–,–,–
CN(C)[C@@H]1C(O)=C(C(N)=O)C(=O)[C@@]2(O)C(O)=C3C(=O)c4c(O)cccc4[C@@](C)(O)[C@H]3C[C@@H]12 [Tetracycline],0.78 µg/mL,–,–,–,–,–,–,–,–,–,–,–
"NC[C@H]1O[C@H](O[C@H]2[C@H](O)[C@@H](O[C@H]3O[C@H](CO)[C@@H](O)[C@H](N)[C@H]3O)[C@H](N)C[C@@H]2N)[C@H](N)C[C@@H]1O [Tobramycin, reference compound]",–,–,–,–,–,–,–,–,–,–,–,Survival of all treated mice (P. aeruginosa ATCC 27853): survived up to 5 days after infection
"CN[C@H](CC(C)C)C(=O)N[C@H]1C(=O)N[C@@H](CC(N)=O)C(=O)N[C@H]2C(=O)N[C@H]3C(=O)N[C@H](C(=O)N[C@H](C(=O)O)c4cc(O)cc(O)c4-c4cc3ccc4O)[C@H](O)c3ccc(c(Cl)c3)Oc3cc2cc(c3O[C@@H]2O[C@H](CO)[C@@H](O)[C@H](O)[C@H]2O[C@H]2C[C@](C)(N)[C@H](O)[C@H](C)O2)Oc2ccc(cc2Cl)[C@H]1O [Vancomycin, vancomycin]",0.78 µg/mL,–,–,–,–,–,S,S,S,S,S,MIC (Staphylococcus aureus; ATCC13709): 0.78 µg/mL; MIC (Staphylococcus aureus; ATCC25923): 0.78 µg/mL; MIC (Staphylococcus aureus; ATCCBAA1556 / USA300): 0.78 µg/mL
Gentamicin,0.078 µg/mL,R,R,R,R,R,R,S,S,S,R,"Combinations Odilomycin/antibiotic: Odilomycin concentration (S. aureus ATCC 25923; S. aureus ATCC 25923, Odilomycin A part of the inhibitory combination with the labelled antibiotic): 0.19 µg/mL; Combinations Odilomycin/antibiotic: antibiotic concentration (S. aureus ATCC 25923; S. aureus ATCC 25923, antibiotic part of the inhibitory combination with Odilomycin A): 0.039 µg/mL; Synergy with Odilomycin A (S. aureus ATCC 25923; S. aureus ATCC 25923, labelled antibiotic combined with Odilomycin A): synergistic interaction; MIC antibiotic alone (K. pneumoniae ATCC 43816): 0.39 µg/mL; Combinations Odilomycin/antibiotic: Odilomycin concentration (K. pneumoniae ATCC 43816; K. pneumoniae ATCC 43816): 3.12 µg/mL; Synergy with Odilomycin A (K. pneumoniae ATCC 43816; K. pneumoniae ATCC 43816, labelled antibiotic combined with Odilomycin A): synergistic interaction"
polymyxin [reference compound],–,–,–,–,–,–,–,–,–,–,–,MIC (Pseudomonas aeruginosa): 0.39^c μg/mL; MIC (Enterobacter cloacae): 0.78^c μg/mL; MIC (Escherichia coli; E. coli ATCC 25922): 0.39^c μg/mL; MIC (Escherichia coli; E. coli CTX-M14 clinical isolate AEC7): 0.39^c μg/mL; MIC (Escherichia coli; E. coli CTX-M15 clinical isolate MEC23): 0.39^c μg/mL; MIC (Escherichia coli; E. coli TEM clinical isolate MEC12): 0.39^c μg/mL; MIC (Klebsiella oxytoca): 0.39^c μg/mL; MIC (Klebsiella pneumoniae; K. pneumoniae ATCC 43816): 0.39^c μg/mL; MIC (Klebsiella pneumoniae; K. pneumoniae KPC clinical isolate 2475): 0.78^c μg/mL
